In US5721207A, “Method for treatment of pain” (Innapharma, Inc., priority 1995, dated 1998):
Like-named read-outs stand apart in the source and are kept apart here. Ends that are not written are not given here.

Tests used:
[1] = epidural administration; cited from earlier work

Protocol for rat: Intrathecal catheters were surgically implanted in the rats after application of anesthetic (Nembutal, 30 mg/kg, intraperitoneal) 5-7 days prior to the test procedure. The 5-7 day period prior to testing allowed for full recovery from the surgical procedures. […] Each catheter was anchored to the skull with cyanoacrylate adhesive, and the skull was closed with wound clips. The free end of each catheter was heat annealed; when compositions were to be injected via the intrathecal route each composition was introduced therein using a Hamilton needle inserted into the sealed catheter.
Pain sensitivity was assessed using a standard analgesiometric hot plate test (Woolfe and MacDonald (1944) J. Pharmacol. Exp. Ther. 80:300). The hot plate response was determined by placing a rat on a 55° C. copper hot plate enclosed in a plexiglass cylinder.
Because of the technical demands of these experiments, no more than 8-9 rats were tested on a given day. Sufficient animals were studied to obtain 10-11 evaluable rats per test condition. On the study day, animals were tested for baseline hot plate responses, and then received bolus injections of test analgesic or physiological saline (control). Hot plate responses were assessed again at 15 min, 30 min, 1 hr, 3 hr, 6 hr and 24 hr after intrathecal injection of test compound or vehicle control.
Ninety-six (96) rats, ranging in weight from 320 g to 420 g, were used in this study. Catheters were implanted and recovery was allowed for as described hereinabove. […] Drug or saline vehicle doses were administered using Hamilton needles inserted into the catheters, with a dose volumes of 37.5 μL/kg followed by a 10 μL saline catheter wash-out. Baseline (pre-drug) and responses at 15 min, 30 min, 1 hr, 3 hr, 6 hr and 24 hr after drug or vehicle injection were determined.

Molecule: CN1CC[C@]23c4c5ccc(O)c4O[C@H]2[C@@H](O)C=C[C@H]3[C@H]1C5.O=S(=O)(O)O [Morphine, Morphine sulfate]
- Hot Plate Latency (Mean ± SEM) (rat; 37.5 μg/kg (49.42 nmol/kg) intrathecal single, 0 hr (baseline)): 12.81 ± 1.23 s
- Hot Plate Latency (Mean ± SEM) (rat; 37.5 μg/kg (49.42 nmol/kg) intrathecal single, 0.25 hr): 22.08 ± 2.68 s
- Hot Plate Latency (Mean ± SEM) (rat; 37.5 μg/kg (49.42 nmol/kg) intrathecal single, 0.5 hr): 20.97 ± 2.56 s
- Hot Plate Latency (Mean ± SEM) (rat; 37.5 μg/kg (49.42 nmol/kg) intrathecal single, 1 hr): 21.81 ± 2.46 s
- Hot Plate Latency (Mean ± SEM) (rat; 37.5 μg/kg (49.42 nmol/kg) intrathecal single, 3 hr): 19.97 ± 2.05 s
- Hot Plate Latency (Mean ± SEM) (rat; 37.5 μg/kg (49.42 nmol/kg) intrathecal single, 6 hr): 14.02 s
- Hot Plate Latency (Mean ± SEM) (rat; 37.5 μg/kg (49.42 nmol/kg) intrathecal single, 24 hr): 11.33 ± 1.51 s
- Hot Plate Latency (Mean ± SEM) (rat; 75.0 μg/kg (98.84 nmol/kg) intrathecal single, 0 hr (baseline)): 13.76 ± 1.27 s
- Hot Plate Latency (Mean ± SEM) (rat; 75.0 μg/kg (98.84 nmol/kg) intrathecal single, 0.25 hr): 22.76 ± 2.43 s
- Hot Plate Latency (Mean ± SEM) (rat; 75.0 μg/kg (98.84 nmol/kg) intrathecal single, 0.5 hr): 21.86 ± 2.25 s
- Hot Plate Latency (Mean ± SEM) (rat; 75.0 μg/kg (98.84 nmol/kg) intrathecal single, 1 hr): 19.88 ± 2.04 s
- Hot Plate Latency (Mean ± SEM) (rat; 75.0 μg/kg (98.84 nmol/kg) intrathecal single, 3 hr): 17.42 ± 1.93 s
- Hot Plate Latency (Mean ± SEM) (rat; 75.0 μg/kg (98.84 nmol/kg) intrathecal single, 6 hr): 17.66 s
- Hot Plate Latency (Mean ± SEM) (rat; 75.0 μg/kg (98.84 nmol/kg) intrathecal single, 24 hr): 12.60 ± 1.19 s
- Hot Plate Latency (Mean ± SEM) (rat; 125.0 μg/kg (164.73 nmol/kg) intrathecal single, 0 hr (baseline)): 13.28 ± 1.35 s
- Hot Plate Latency (Mean ± SEM) (rat; 125.0 μg/kg (164.73 nmol/kg) intrathecal single, 0.25 hr): 19.4 ± 1.6 s
- Hot Plate Latency (Mean ± SEM) (rat; 125.0 μg/kg (164.73 nmol/kg) intrathecal single, 0.5 hr): 26.36 ± 4.20 s
- Hot Plate Latency (Mean ± SEM) (rat; 125.0 μg/kg (164.73 nmol/kg) intrathecal single, 1 hr): 26.83 ± 3.04 s
- Hot Plate Latency (Mean ± SEM) (rat; 125.0 μg/kg (164.73 nmol/kg) intrathecal single, 3 hr): 21.69 ± 3.62 s
- Hot Plate Latency (Mean ± SEM) (rat; 125.0 μg/kg (164.73 nmol/kg) intrathecal single, 6 hr): 15.86 s
- Hot Plate Latency (Mean ± SEM) (rat; 125.0 μg/kg (164.73 nmol/kg) intrathecal single, 24 hr): 13.49 s
- onset of antinociception/analgesia post-injection (rat; intrathecal, all tested doses): ≤ 15 min
- dose relation of hot plate latency (rat; intrathecal, all three doses (37.5, 75.0, 125.0 μg/kg)): increased hot plate latency in a dose-related fashion
- peak levels of analgesia compared with elcatonin (rat; intrathecal, doses used in this study): generally lower
- time of return toward baseline hot plate scores (rat; intrathecal, post-injection, particularly lower doses): ≤ 6 h

Molecule: salmon calcitonin: salmon calcitonin, sequence given as SEQ ID No 4 (CSNLSTCVLGKLSQELHKLQTYPRTNTGSGTP; ends and bridges not checked; cysteine pairing not given here)
- use as an analgesic in intractable pain [1]: the data did not appear to support its use as an analgesic
